Measurements reported in patent publication US20220402901A1 (Bial - R&D Investments, S.A., priority 2019, published 2022).

System: not listed separately
Test: Compound solubility in water
Format: physicochemical
Conditions: read-out: Solubility in H2O

Question: With `CC1CC(c2ccc3c(c2)oc(=O)n3C)CCN1C(=O)NCCCCc1ccccc1` (mixture of isomers) [Example 16, 2-methyl-4-(3-methyl-2-oxo-1,3-benzoxazol-6-yl)-N-(4-phenylbutyl)piperidine-1-carboxamide] as the compound, how does the solubility read?
Answer: Its solubility is 2.2 µM.

Question: With `C[C@H]1CC(c2ccc3c(c2)oc(=O)n3C)CCN1C(=O)NCCCCc1ccccc1` (mixture of isomers) [Example 20, (2S)-methyl-4-(3-methyl-2-oxo-1,3-benzoxazol-6-yl)-N-(4-phenylbutyl)piperidine-1-carboxamide] as the compound, how does the solubility read?
Answer: The solubility was 10 µM.

Biological target: T1, Human acid ceramidase (hACR) (Homo sapiens, UniProt Q13510)
T1 construct: expressed in transfected cells; lysates of cells overexpressing acid ceramidase
T1 sequence (Q13510 22-395): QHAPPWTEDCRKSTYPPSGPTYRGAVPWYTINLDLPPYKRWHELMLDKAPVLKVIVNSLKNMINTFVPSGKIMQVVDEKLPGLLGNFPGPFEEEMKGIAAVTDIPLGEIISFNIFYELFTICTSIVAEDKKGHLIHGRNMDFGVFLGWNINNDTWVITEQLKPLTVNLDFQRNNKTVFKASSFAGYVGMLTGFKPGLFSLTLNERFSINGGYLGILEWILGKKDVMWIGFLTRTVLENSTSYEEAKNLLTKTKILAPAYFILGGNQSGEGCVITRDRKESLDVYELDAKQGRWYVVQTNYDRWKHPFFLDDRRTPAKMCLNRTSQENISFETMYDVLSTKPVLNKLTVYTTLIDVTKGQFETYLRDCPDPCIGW
Test: Acid ceramidase biochemical fluorescent assay (cell lysates overexpressing acid ceramidase, substrate Rbm14-12)
Conditions: 10 μg lysate protein, 1 hr preincubation at RT, pH 4.5, Rbm14-12 6.3 μM
Description: The ability of exemplary compounds to inhibit acid ceramidase was measured.
Cell lysates overexpressing acid ceramidase were used as the enzyme source for compound potency determination in a biochemical fluorescent assay. Briefly, compounds were preincubated with 10 μg protein of cell lysates in a dose-response manner for 1 hr at RT in the assay buffer containing 25 mM NaAC and 100 mM NaCl, pH 4.5. The reaction was initiated by the addition of substrate Rbm14-12 at a final concentration of 6.3 μM. The reaction was run at RT for 1 hr before it was stopped by the addition of the stopping buffer containing 20% methanol (v/v), 1 mg/ml NaIO4, 0.1 M glycine, pH 10.6. The samples were incubated with the stopping buffer at RT for 1 hr to allow the fluorescent product to be formed. Finally the plate was read with SpectraMax i3 plate reader (Molecular Devices) at ex360 nm and em446 nm. Data were collected and used to determine the IC50 values of compounds by curve fitting to the four-parameter inhibition equation.
The symbol “A” indicates inhibition of less than 0.2 μM; the symbol “B” indicates inhibition in the range of 0.2 μM up to 1 μM; and the symbol “C” indicates inhibition of greater than 1 μM.

Question: Which IC50 does the source give for `CC1CC(c2ccc3c(c2)oc(=O)n3C)CCN1C(=O)NCCCCc1ccccc1` (mixture of isomers) [Example 16, 2-methyl-4-(3-methyl-2-oxo-1,3-benzoxazol-6-yl)-N-(4-phenylbutyl)piperidine-1-carboxamide] here?
Answer: The IC50 was under 0.2 µM.

Question: For `C[C@@H]1CC(c2ccc3c(c2)oc(=O)n3C)CCN1C(=O)NCCCCc1ccccc1` (mixture of isomers) [Example 17, (2R)-2-Methyl-4-(3-methyl-2-oxo-1,3-benzoxazol-6-yl)-N-(4-phenylbutyl)piperidine-1-carboxamide], which IC50 is on record?
Answer: Its IC50 is under 0.2 µM.

Question: With `C[C@@H]1CC(c2ccc3c(c2)oc(=O)n3C)CCN1C(=O)NCCc1ccccc1` (mixture of isomers) [Example 18, (2R)-2-Methyl-4-(3-methyl-2-oxo-1,3-benzoxazol-6-yl)-N-(2-phenylethyl)piperidine-1-carboxamide] as the compound, how does the IC50 read?
Answer: The IC50 was 0.2 to 1 µM.

Question: Which IC50 does the source give for `CC(C)CNC(=O)N1CCC(c2ccc3c(c2)oc(=O)n3C)C[C@H]1C` (mixture of isomers) [Example 19, N-iso-Butyl (2R)-methyl-4-(3-methyl-2-oxo-1,3-benzoxazol-6-yl)piperidine-1-carboxamide] here?
Answer: Its IC50 is over 1 µM.

Question: For `C[C@H]1CC(c2ccc3c(c2)oc(=O)n3C)CCN1C(=O)NCCCCc1ccccc1` (mixture of isomers) [Example 20, (2S)-methyl-4-(3-methyl-2-oxo-1,3-benzoxazol-6-yl)-N-(4-phenylbutyl)piperidine-1-carboxamide], which IC50 is on record?
Answer: The IC50 was under 0.2 µM.

Question: For `Cn1c(=O)oc2cc(C3CCN(C(=O)NCCCCc4ccccc4)CC3)ccc21` [Example 2, 4-(3-Methyl-2-oxo-1,3-benzoxazol-6-yl)-N-(4-phenylbutyl)piperidine-1-carboxamide], which IC50 is on record?
Answer: The IC50 was over 1 µM.

Question: Which IC50 does the source give for `Cn1c(=O)oc2cc(C3CCN(C(=O)NCCC4CC4)CC3)ccc21` [Example 4, N-(2-Cyclopropylethyl)-4-(3-methyl-2-oxo-1,3-benzoxazol-6-yl)piperidine-1-carboxamide] here?
Answer: Its IC50 is over 1 µM.

Question: Which IC50 does the source give for `Cn1c(=O)oc2cc(C3CCN(C(=O)NC4CCCCC4)CC3)ccc21` [Example 5, N-Cyclohexyl-4-(3-methyl-2-oxo-1,3-benzoxazol-6-yl)piperidine-1-carboxamide] here?
Answer: The IC50 was over 1 µM.

Question: Which IC50 does the source give for `O=C(NCCCCc1ccccc1)N1CCCC(c2ccc3[nH]c(=O)oc3c2)C1` (stereo not shown) [Example 11, 3-(2-Oxo-3H-1,3-benzoxazol-6-yl)-N-(4-phenylbutyl)piperidine-1-carboxamide] here?
Answer: Its IC50 is over 1 µM.

Question: With `CCCCCNC(=O)N1CCCC(c2ccc3c(c2)oc(=O)n3C)C1` (stereo not shown) [Example 13, 3-(3-Methy-2-oxo-1,3-benzoxazol-6-yl)-N-pentyl-piperidine-1-carboxamide] as the compound, how does the IC50 read?
Answer: Its IC50 is over 1 µM.

Question: For `CCOCCNC(=O)N1CCCC(c2ccc3c(c2)oc(=O)n3C)C1` (stereo not shown) [Example 14, N-(2-Ethoxyethyl)-3-(3-methyl-2-oxo-1,3-benzoxazol-6-yl)piperidine-1-carboxamide], which IC50 is on record?
Answer: Its IC50 is over 1 µM.

Question: Which IC50 does the source give for `Cn1c(=O)oc2cc(C3=CCCN(C(=O)NCCCCc4ccccc4)C3)ccc21` [Example 15, 5-(3-methyl-2-oxo-1,3-benzoxazol-6-yl)-N-(4-phenylbutyl)-3,6-dihydro-2H-pyridine-1-carboxamide] here?
Answer: The IC50 was 0.2 to 1 µM.

Question: For `CC1(C)CC(c2ccc3[nH]c(=O)oc3c2)CCN1C(=O)NCCCCc1ccccc1` (stereo not shown) [Example 23, 2,2-Dimethyl-4-(2-oxo-3H-1,3-benzoxazol-6-yl)-N-(4-phenylbutyl)piperidine-1-carboxamide], which IC50 is on record?
Answer: Its IC50 is under 0.2 µM.

Question: Which IC50 does the source give for `COCCCNC(=O)N1CCC(c2ccc3c(c2)oc(=O)n3C)CC1(C)C` (stereo not shown) [Example 30, N-(3-methoxypropyl)-2,2-dimethyl-4-(3-methyl-2-oxo-1,3-benzoxazol-6-yl)piperidine-1-carboxamide] here?
Answer: The IC50 was over 1 µM.

Question: For `CN(C)CCn1c(=O)oc2cc(C3CCN(C(=O)NCCCCc4ccccc4)C(C)(C)C3)ccc21` (stereo not shown) [Example 32, 4-[3-[2-(Dimethylamino)ethyl]-2-oxo-1,3-benzoxazol-6-yl]-2,2-dimethyl-N-(4-phenylbutyl)piperidine-1-carboxamide], which IC50 is on record?
Answer: Its IC50 is under 0.2 µM.

Question: For `Cn1c(=O)oc2cc(C3CCN(C(=O)NCCCCc4ccccc4)C4(COC4)C3)ccc21` (stereo not shown) [Example 34, 8-(3-Methyl-2-oxo-1,3-benzoxazol-6-yl)-N-(4-phenylbutyl)-2-oxa-5-azaspiro[3.5]nonane-5-carboxamide], which IC50 is on record?
Answer: The IC50 was over 1 µM.

Question: With `O=C(NCCCCc1ccccc1)N1CCCCC1c1ccc2[nH]c(=O)oc2c1` (stereo not shown) [Example 36, 2-(2-Oxo-3H-1,3-benzoxazol-6-yl)-N-(4-phenylbutyl)piperidine-1-carboxamide] as the compound, how does the IC50 read?
Answer: The IC50 was over 1 µM.

Question: With `Cn1c(=O)oc2cc(C3COCCN3C(=O)NCCCCc3ccccc3)ccc21` (stereo not shown) [Example 38, 3-(3-Methyl-2-oxo-1,3-benzoxazol-6-yl)-N-(4-phenylbutyl)morpholine-4-carboxamide] as the compound, how does the IC50 read?
Answer: Its IC50 is over 1 µM.

Question: Which IC50 does the source give for `Cn1c(=O)oc2cc(C3CCCN3C(=O)NCCCCc3ccccc3)ccc21` (stereo not shown) [Example 44, 2-(3-Methyl-2-oxo-1,3-benzoxazol-6-yl)-N-(4-phenylbutyl)pyrrolidine-1-carboxamide] here?
Answer: The IC50 was over 1 µM.

Question: With `O=C(NCCCCc1ccccc1)N1CCN(c2ccc3[nH]c(=O)oc3c2)CC1` [Example 45, 4-(2-Oxo-3H-1,3-benzoxazol-6-yl)-N-(4-phenylbutyl)piperazine-1-carboxamide] as the compound, how does the IC50 read?
Answer: Its IC50 is over 1 µM.

Question: For `C[C@H]1CN(c2ccc3c(c2)oc(=O)n3C)CCN1C(=O)NCCCCc1ccccc1` [Example 49, (2S)-2-Methyl-4-(3-methyl-2-oxo-1,3-benzoxazol-6-yl)-N-(4-phenylbutyl)piperazine-1-carboxamide], which IC50 is on record?
Answer: Its IC50 is 0.2 to 1 µM.

Question: Which IC50 does the source give for `CCOCCNC(=O)N1CCN(c2ccc3c(c2)oc(=O)n3C)CC1(C)C` [Example 55, N-(2-Ethoxyethyl)-2,2-dimethyl-4-(3-methyl-2-oxo-1,3-benzoxazol-6-yl)piperazine-1 carboxamide] here?
Answer: Its IC50 is over 1 µM.

Question: For `COCCCNC(=O)N1CCN(c2ccc3c(c2)oc(=O)n3C)CC1(C)C` [Example 56, N-(3-Methoxypropyl)-2,2-dimethyl-4-(3-methyl-2-oxo-1,3-benzoxazol-6-yl)piperazine-1-carboxamide], which IC50 is on record?
Answer: The IC50 was over 1 µM.

Question: Which IC50 does the source give for `Cn1c(=O)oc2cc(N3CCN(C(=O)NCCCCc4ccccc4)C4(CC4)C3)ccc21` [Example 60, 7-(3-Methyl-2-oxo-1,3-benzoxazol-6-yl)-N-(4-phenylbutyl)-4,7-diazaspiro[2.5]octane-4-carboxamide] here?
Answer: Its IC50 is over 1 µM.

Question: For `Cn1c(=O)oc2cc(N3CC4CCC(C3)N4C(=O)NCCCCc3ccccc3)ccc21` [Example 61, 3-(3-Methyl-2-oxo-1,3-benzoxazol-6-yl)-N-(4-phenylbutyl)-3,8-diazabicyclo[3.2.1]octane-8-carboxamide], which IC50 is on record?
Answer: Its IC50 is over 1 µM.

Question: Which IC50 does the source give for `Cn1c(=O)oc2cc(N3CC4(COC4)N(C(=O)NCCCCc4ccccc4)CC3=O)ccc21` [Example 62, 8-(3-Methyl-2-oxo-1,3-benzoxazol-6-yl)-7-oxo-N-(4-phenylbutyl)-2-oxa-5,8-diazaspiro[3.5]nonane-5-carboxamide] here?
Answer: Its IC50 is 0.2 to 1 µM.

Question: Which IC50 does the source give for `Cn1c(=O)oc2cc(N3C[C@H]4CN(C(=O)NCCCCc5ccccc5)C[C@H]4C3)ccc21` [Example 66, (3aS,6aR)- and (3aR,6aS)-2-(3-Methyl-2-oxo-1,3-benzoxazol-6-yl)-N-(4-phenylbutyl)-1,3,3a,4,6,6a-hexahydropyrrolo[3,4-c]pyrrole-5-carboxamide] here?
Answer: The IC50 was under 0.2 µM.

Question: Which IC50 does the source give for `O=C(NCCCCc1ccccc1)N1CC2(CCN(c3ccc4[nH]c(=O)oc4c3)CC2)C1` [Example 67, 7-(2-Oxo-3H-1,3-benzoxazol-6-yl)-N-(4-phenylbutyl)-2,7-diazaspiro[3.5]nonane-2-carboxamide] here?
Answer: The IC50 was over 1 µM.

Question: For `Cn1c(=O)oc2cc(N3CCC4(CC3)CN(C(=O)NCCCCc3ccccc3)C4)ccc21` [Example 68, 7-(3-methyl-2-oxo-1,3-benzoxazol-6-yl)-N-(4-phenylbutyl)-2,7-diazaspiro[3.5]nonane-2-carboxamide], which IC50 is on record?
Answer: Its IC50 is over 1 µM.

Question: For `O=C(NCCCCc1ccccc1)N1CCC2(CC1)CN(c1ccc3[nH]c(=O)oc3c1)C2` [Example 69, 2-(2-Oxo-3H-1,3-benzoxazol-6-yl)-N-(4-phenylbutyl)-2,7-diazaspiro[3.5]nonane-7-carboxamide], which IC50 is on record?
Answer: Its IC50 is over 1 µM.

Question: For `Cn1c(=O)oc2cc(N3CC4(CCN(C(=O)NCCCCc5ccccc5)CC4)C3)ccc21` [Example 70, 2-(3-Methyl-2-oxo-1,3-benzoxazol-6-yl)-N-(4-phenylbutyl)-2,7-diazaspiro[3.5]nonane-7-carboxamide], which IC50 is on record?
Answer: The IC50 was over 1 µM.

Question: For `Cn1c(=O)oc2cc(N3CCC4(CCN(C(=O)NCCCCc5ccccc5)CC4)CC3)ccc21` [Example 71, 9-(3-Methyl-2-oxo-1,3-benzoxazol-6-yl)-N-(4-phenylbutyl)-3,9-diazaspiro[5.5]undecane-3-carboxamide], which IC50 is on record?
Answer: The IC50 was over 1 µM.
